Measured values from ChEMBL document CHEMBL3407467, “Recent advances in the chemistry and biology of pyridopyrimidines” (Eur J Med Chem, 2015).
pIC50, pKi: −log10 of the molar value. Values belong to the compound of their own block, whether it stands above or below them.

Legend:
[1] = molecular target: Receptor tyrosine-protein kinase erbB-2 (Homo sapiens, UniProt P04626); test: Inhibition of ErbB-2 intracellular domain (unknown origin) purified from a baculovirus expression system using Biotin-(amino hexonoic acid)-EEEEYFELVAKKK-CONH2 as substrate after 10 mins by scintillation counting in presence of [gamma-33P]ATP
Sequence of Receptor tyrosine-protein kinase erbB-2 (P04626 whole entry, the tested form may be a part): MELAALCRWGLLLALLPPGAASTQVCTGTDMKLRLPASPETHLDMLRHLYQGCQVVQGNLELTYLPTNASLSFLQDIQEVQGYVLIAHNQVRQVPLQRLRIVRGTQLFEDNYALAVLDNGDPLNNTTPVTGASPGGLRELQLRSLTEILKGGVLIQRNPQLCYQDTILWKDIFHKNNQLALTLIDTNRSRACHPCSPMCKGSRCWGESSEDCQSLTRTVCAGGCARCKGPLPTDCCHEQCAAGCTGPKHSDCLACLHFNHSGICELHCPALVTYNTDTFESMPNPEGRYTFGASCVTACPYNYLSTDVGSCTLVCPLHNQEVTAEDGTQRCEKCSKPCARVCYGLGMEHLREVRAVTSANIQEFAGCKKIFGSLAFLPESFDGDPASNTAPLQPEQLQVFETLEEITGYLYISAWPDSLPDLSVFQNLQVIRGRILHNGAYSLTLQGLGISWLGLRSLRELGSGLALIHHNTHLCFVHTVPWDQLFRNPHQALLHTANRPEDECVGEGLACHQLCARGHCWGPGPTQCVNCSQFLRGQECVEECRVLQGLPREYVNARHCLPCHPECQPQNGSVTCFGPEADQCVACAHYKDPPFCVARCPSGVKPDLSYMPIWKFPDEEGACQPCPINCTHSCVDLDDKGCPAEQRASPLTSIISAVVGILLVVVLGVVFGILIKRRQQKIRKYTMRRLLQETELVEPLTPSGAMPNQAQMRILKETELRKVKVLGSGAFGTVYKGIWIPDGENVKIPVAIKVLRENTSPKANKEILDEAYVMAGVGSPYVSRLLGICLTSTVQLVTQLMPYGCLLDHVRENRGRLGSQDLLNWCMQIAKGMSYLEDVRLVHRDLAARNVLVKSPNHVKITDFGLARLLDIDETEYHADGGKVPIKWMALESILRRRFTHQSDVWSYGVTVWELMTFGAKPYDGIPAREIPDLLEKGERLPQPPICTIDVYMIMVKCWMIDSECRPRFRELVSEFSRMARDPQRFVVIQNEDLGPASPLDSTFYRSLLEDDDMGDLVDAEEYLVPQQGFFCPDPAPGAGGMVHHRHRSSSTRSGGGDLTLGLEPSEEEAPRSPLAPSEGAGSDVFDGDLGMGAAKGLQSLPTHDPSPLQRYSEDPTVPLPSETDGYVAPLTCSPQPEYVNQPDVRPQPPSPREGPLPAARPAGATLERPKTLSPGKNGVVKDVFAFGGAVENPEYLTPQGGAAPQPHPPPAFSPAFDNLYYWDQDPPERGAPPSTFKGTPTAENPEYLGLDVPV

[2] = Inhibition of Pneumocystis carinii DHFR K37Q/F69N mutant by spectrophotometric assay
Dihydrofolate reductase [3] = molecular target: T1, Dihydrofolate reductase (Homo sapiens, UniProt P00374); test: Inhibition of recombinant human DHFR expressed in Escherichia coli Rosetta Gami B (DE3) by spectrophotometric assay
T1 sequence (P00374 whole entry): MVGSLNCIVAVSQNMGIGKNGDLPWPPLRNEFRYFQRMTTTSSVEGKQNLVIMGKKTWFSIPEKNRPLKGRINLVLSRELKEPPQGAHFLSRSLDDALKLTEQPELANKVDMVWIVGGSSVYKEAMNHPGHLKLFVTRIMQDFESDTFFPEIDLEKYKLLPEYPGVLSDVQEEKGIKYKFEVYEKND

Dihydrofolate reductase [4] = molecular target: T2, Dihydrofolate reductase (Pneumocystis carinii, UniProt P16184); test: Inhibition of recombinant Pneumocystis carinii DHFR expressed in Escherichia coli Rosetta Gami B (DE3) by spectrophotometric assay
T2 sequence (P16184 whole entry): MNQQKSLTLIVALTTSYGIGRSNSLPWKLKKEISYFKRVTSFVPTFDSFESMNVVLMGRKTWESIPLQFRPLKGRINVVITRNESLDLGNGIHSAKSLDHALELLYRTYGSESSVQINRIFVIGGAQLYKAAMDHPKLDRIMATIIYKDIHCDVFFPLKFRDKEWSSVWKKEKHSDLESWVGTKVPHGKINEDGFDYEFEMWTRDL

[5] = Inhibition of recombinant Pneumocystis jirovecii DHFR expressed in Escherichia coli Rosetta Gami B (DE3) by spectrophotometric assay
[6] = Inhibition of human DHFR mutant by spectrophotometric assay
Dihydrofolate reductase [7] = molecular target: Dihydrofolate reductase (Pneumocystis carinii, UniProt P16184, K37Q); test: Inhibition of Pneumocystis carinii DHFR K37Q mutant by spectrophotometric assay
Sequence of Dihydrofolate reductase (Pneumocystis carinii, UniProt P16184, K37Q) (P16184 whole entry K37Q): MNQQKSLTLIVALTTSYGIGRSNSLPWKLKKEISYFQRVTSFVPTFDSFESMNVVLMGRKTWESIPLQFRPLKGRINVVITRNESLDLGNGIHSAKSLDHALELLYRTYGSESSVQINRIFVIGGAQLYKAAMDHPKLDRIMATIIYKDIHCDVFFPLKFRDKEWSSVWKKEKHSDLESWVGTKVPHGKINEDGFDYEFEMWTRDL

Adenosine kinase = Adenosine kinase (Homo sapiens, UniProt P55263); test: Inhibition of adenosine kinase (unknown origin)
Sequence of Adenosine kinase (P55263 whole entry): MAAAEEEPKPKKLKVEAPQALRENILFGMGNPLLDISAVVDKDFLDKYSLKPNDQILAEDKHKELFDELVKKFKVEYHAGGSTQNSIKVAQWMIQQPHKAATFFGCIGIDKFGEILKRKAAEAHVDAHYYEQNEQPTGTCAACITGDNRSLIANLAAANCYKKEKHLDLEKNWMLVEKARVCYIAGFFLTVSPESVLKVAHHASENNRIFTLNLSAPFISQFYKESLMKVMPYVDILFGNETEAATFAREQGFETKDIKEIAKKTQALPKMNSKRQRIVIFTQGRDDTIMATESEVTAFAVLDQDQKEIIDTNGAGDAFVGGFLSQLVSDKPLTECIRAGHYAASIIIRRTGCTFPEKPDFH

[8] = Inhibition of Pneumocystis jirovecii DHFR

pIC50 [1]: 7.80
Compound: CN(C)c1cc2c(Nc3ccc4c(cnn4Cc4ccccc4)c3)ncnc2cn1 [GW282974X]

Compound: Nc1nc(N)c2cc(CNc3cc(Cl)ccc3Cl)cnc2n1
pKi [2]: 9.15 | pKi (Dihydrofolate reductase [3]): 7.61 | pKi (Dihydrofolate reductase [4]): 8.20 | pKi [5]: 8.57 | pKi [6]: 9.24 | pKi (Dihydrofolate reductase [7]): 9.59

pIC50 [1]: 7.52
Compound: CN(CCO)c1cc2c(Nc3ccc4c(cnn4Cc4ccccc4)c3)ncnc2cn1

pIC50 (Adenosine kinase): 8.70
Compound: Nc1ncnc2nc(-c3ccc(N4CCOCC4)nc3)cc(-c3cccc(Br)c3)c12

pIC50 [8]: 8.38
Compound: CN(c1cc(F)c(F)c(F)c1)c1cnc2nc(N)nc(N)c2c1

pIC50 [1]: 7.68
Compound: [O-][S+]1CCN(Cc2ccc(-c3cc4c(Nc5ccc(OCc6cccc(F)c6)cc5)ncnc4cn3)o2)CC1

pIC50 [1]: 7.59
Compound: CS(=O)(=O)CCNCc1ccc(-c2cc3c(Nc4ccc(OCc5ccccc5)cc4)ncnc3cn2)o1
